Results taken from patent US9487546B2, “Solid forms of tenofovir” (Gilead Sciences, Inc., priority 2014, dated 2016).

Tests used:
Format in all cases: physicochemical
[1] = Storage of Form IV in a sealed vial, checked by XRPD; settings: kept in a sealed vial at ambient temperature
Excerpt: Form IV was obtained by keeping Form VI in water at ambient temperature for 3 weeks.

[2] = Thermogravimetric analysis (TGA) of Form I, dehydration; settings: under nitrogen purge, 10° C./min
Description: Thermogravimetric analysis (TGA) data was obtained using 2.01 mg PMPA Form I and was heated at a rate of 10° C./min over the range of 25 to 350° C. The solids lost about 6.1% water below 100° C., and the loss is very close to the theoretical water content of 5.9% for PMPA monohydrate.

[3] = XRPD patterns during heating (70, 80, 90° C.), form transition; settings: XRPD patterns at 70, 80, and 90° C. during the heating period

change of sample by XRPD analysis on storage [1]	dehydration temperature (TGA) [2]	transition from monohydrate (Form I) to an anhydrous form [3]	Compound
did not change	–	–	C[C@H](Cn1cnc2c(N)ncnc21)OCP(=O)(O)O [Form IV, (R)-9-[2-(phosphonomethoxy)propyl]adenine]
–	about 50 °C	around 80 °C	C[C@H](Cn1cnc2c(N)ncnc21)OCP(=O)(O)O [Form I, (R)-9-[2-(phosphonomethoxy)propyl]adenine]
